System: SARS-CoV-2
Assay: In vitro antiviral cell-based assay (live SARS-CoV-2), plaque reduction assay in VeroE6 cells
Conditions: Severe acute respiratory syndrome coronavirus 2, Vero, read-out: Vero EC50 (μM)

Molecule CC(C(=O)NC1CCC(F)(F)CC1)(c1cncnc1)N(C(=O)[C@H](F)Cl)c1ccc(-c2cncs2)cc1 (single isomer, unassigned) [Example 1a] has an EC50 of 0.1 to 1 µM.
